{"source": "patent US9453005B2", "about": "“Inhibition of influenza M2 proton channel” (The Trustees Of The University Of Pennsylvania, priority 2008, dated 2016)"}
{"molecular_target": "AM2(V27A) (Influenza A virus, UniProt P0DOF5, V27A)", "type": "biochemical"}
{"smiles": "Cl.NC12CC3CC(CC(C3)C1)C2", "note": "[amantadine, reference compound]", "% Activity": "99.1%"}
{"smiles": "NC1CCC2(CCCCC2)CC1", "note": "[Compound 8, Spiro[5.5]undec-3-ylamine]", "% Activity": "8 (47.34%) 9 (68.39%)"}
{"smiles": "CNC1CCC2(CCCCC2)CC1", "note": "[Compound 9, Methyl-spiro[5.5]undec-3-yl-amine]", "% Activity": "8 (47.34%) 9 (68.39%)"}
